Laboratory results: PubChem BioAssay AID248 (DTP/NCI, 2004)
Several values for one entry are separate records, joined by “and”; a condition that tells them apart may be missing. Equal values may be shown once. Toxic doses and inconclusive results are not listed. Cut-off read from the data, not from the text of the source: active = T/C of 150% or more; inactive = T/C below 125%.

Tested on: L1210 leukemia ip in BDF1 mice, survival T/C
Assay: NCI In Vivo Anticancer Drug Screen. Data for tumor model L1210 Leukemia (intraperitoneal) in B6D2F1 (BDF1) mice
Settings: endpoint: mean survival time, higher = longer survival
In short: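 Each compound was tested against a transplantable tumor grown in mice. The endpoint was survival, with treated animals benchmarked against vehicle controls as a simple ratio.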

[1] = dose: 25.0 mg/kg/injection, schedule: Q04DX003 (ip), vehicle: Klucel (hydroxypropylcellulose) (HPC)
[2] = dose: 50.0 mg/kg/injection, schedule: Q04DX003 (ip), vehicle: Klucel (hydroxypropylcellulose) (HPC)
[3] = dose: 100.0 mg/kg/injection, schedule: Q04DX003 (ip), vehicle: Klucel (hydroxypropylcellulose) (HPC)
[4] = dose: 50.0 mg/kg/injection, schedule: Q01DX001 (ip), vehicle: saline
[5] = dose: 100.0 mg/kg/injection, schedule: Q01DX001 (ip), vehicle: saline
[6] = dose: 200.0 mg/kg/injection, schedule: Q01DX001 (ip), vehicle: saline
[7] = dose: 400.0 mg/kg/injection, schedule: Q01DX001 (ip), vehicle: saline
[8] = dose: 12.5 mg/kg/injection, schedule: Q04DX003 (ip), vehicle: Klucel (hydroxypropylcellulose) (HPC)
[9] = dose: 100.0 mg/kg/injection, schedule: Q04DX002 (ip), vehicle: saline
[10] = dose: 100.0 mg/kg/injection, schedule: Q04DX003 (ip), vehicle: saline
[11] = dose: 200.0 mg/kg/injection, schedule: Q04DX002 (ip), vehicle: saline
[12] = dose: 200.0 mg/kg/injection, schedule: Q04DX003 (ip), vehicle: saline
[13] = dose: 400.0 mg/kg/injection, schedule: Q04DX002 (ip), vehicle: saline
[14] = dose: 100.0 mg/kg/injection, schedule: Q01DX001 (ip), vehicle: Klucel (hydroxypropylcellulose) (HPC)
[15] = dose: 200.0 mg/kg/injection, schedule: Q01DX001 (ip), vehicle: Klucel (hydroxypropylcellulose) (HPC)
[16] = dose: 400.0 mg/kg/injection, schedule: Q01DX001 (ip), vehicle: Klucel (hydroxypropylcellulose) (HPC)
[17] = dose: 50.0 mg/kg/injection, schedule: Q01DX009 (ip), vehicle: Klucel (hydroxypropylcellulose) (HPC)
[18] = dose: 100.0 mg/kg/injection, schedule: Q01DX009 (ip), vehicle: Klucel (hydroxypropylcellulose) (HPC)
[19] = dose: 200.0 mg/kg/injection, schedule: Q01DX009 (ip), vehicle: Klucel (hydroxypropylcellulose) (HPC)
[20] = dose: 200.0 mg/kg/injection, schedule: Q04DX003 (ip), vehicle: Klucel (hydroxypropylcellulose) (HPC)
[21] = dose: 400.0 mg/kg/injection, schedule: Q01DX009 (ip), vehicle: Klucel (hydroxypropylcellulose) (HPC)
[22] = dose: 400.0 mg/kg/injection, schedule: Q04DX003 (ip), vehicle: saline

Measured: T/C

COC(=O)c1cncn1C(C)c1cccc2ccccc12 (stereo not drawn)
inactive: [1] 96 % of control | [2] 102 % of control | [3] 101 % of control and 103 % of control

C=CCc1cccc(C2N(Cc3ccccc3OC)CCCN2Cc2ccccc2OC)c1O
inactive: [4] 103 % of control | [5] 100 % of control | [6] 97 % of control | [7] 97 % of control

C=C/C=C/CCN1CC1
inactive: [8] 114 % of control | [1] 112 % of control | [2] 106 % of control

CC(=O)N(O)CCCC1NC(=O)C(CCCN(O)C(C)=O)NC1=O (stereo not drawn)
inactive: [5] 97 % of control | dose: 100.0 mg/kg/injection, schedule: Q01DX009 (ip), vehicle: saline with Tween-80 100 % of control | dose: 100.0 mg/kg/injection, schedule: Q04DX003 (ip), vehicle: saline with Tween-80 92 % of control | [6] 95 % of control | dose: 200.0 mg/kg/injection, schedule: Q01DX009 (ip), vehicle: saline with Tween-80 102 % of control | dose: 200.0 mg/kg/injection, schedule: Q04DX003 (ip), vehicle: saline with Tween-80 92 % of control | [7] 95 % of control | dose: 400.0 mg/kg/injection, schedule: Q01DX009 (ip), vehicle: saline with Tween-80 105 % of control | dose: 400.0 mg/kg/injection, schedule: Q04DX003 (ip), vehicle: saline with Tween-80 100 % of control

C/C=C/CC1=C(O)c2ccccc2C(=O)C1=O
inactive: dose: 100.0 mg/kg/injection, schedule: Q01DX001 (ip), vehicle: water 98 % of control

O=S(=O)(O)N(O)S(=O)(=O)O
inactive: [9] 97 % of control | [10] 97 % of control | [11] 97 % of control | [12] 90 % of control | [13] 102 % of control

CCOC(=O)C1(CCOC(C)=O)CCCCC1=O (stereo not drawn)
inactive: dose: 100.0 mg/kg/injection, schedule: Q01DX001 (ip), vehicle: carboxymethylcellulose (CMC) 93 % of control | dose: 200.0 mg/kg/injection, schedule: Q01DX001 (ip), vehicle: carboxymethylcellulose (CMC) 93 % of control | dose: 400.0 mg/kg/injection, schedule: Q01DX001 (ip), vehicle: carboxymethylcellulose (CMC) 102 % of control

Cc1cc(C)c(Br)cc1N
inactive: [14] 90 % of control | [15] 95 % of control | [16] 102 % of control

CC1=CC(=O)CC(C)(C)C1(O)/C=C/C(C)=C/C(=O)O (stereo not drawn)
inactive: [8] 93 % of control | dose: 25.0 mg/kg/injection, schedule: Q01DX009 (ip), vehicle: Klucel (hydroxypropylcellulose) (HPC) 87 % of control | [1] 96 % of control | [17] 88 % of control | [2] 88 % of control | [18] 93 % of control | [3] 96 % of control | [19] 92 % of control | [20] 98 % of control | [21] 95 % of control | dose: 400.0 mg/kg/injection, schedule: Q04DX003 (ip), vehicle: Klucel (hydroxypropylcellulose) (HPC) 102 % of control

C/C(=C1\C(=O)Nc2ccccc21)c1cccnc1
inactive: dose: 25.0 mg/kg/injection, schedule: Q01DX Z (ip), vehicle: carboxymethylcellulose (CMC) 103 % of control | dose: 50.0 mg/kg/injection, schedule: Q01DX Z (ip), vehicle: carboxymethylcellulose (CMC) 96 % of control | dose: 100.0 mg/kg/injection, schedule: Q01DX Z (ip), vehicle: carboxymethylcellulose (CMC) 103 % of control | dose: 200.0 mg/kg/injection, schedule: Q01DX Z (ip), vehicle: carboxymethylcellulose (CMC) 111 % of control

COc1ccccc1OC
inactive: [10] 97 % of control | [12] 103 % of control | [22] 86 % of control

C/C=C/C(=O)OCCN(CC)CC
inactive: dose: 50.0 mg/kg/injection, schedule: Q01DX009 (ip), vehicle: saline 103 % of control | dose: 100.0 mg/kg/injection, schedule: Q01DX009 (ip), vehicle: saline 103 % of control | dose: 200.0 mg/kg/injection, schedule: Q01DX009 (ip), vehicle: saline 100 % of control

COC(=O)C/C(=N\NC(=O)c1ccccc1)C(=O)OC
inactive: [17] 98 % of control | [18] 93 % of control | [19] 98 % of control | [21] 93 % of control

Cn1c(=O)c2c(nc(OCC3CCCO3)n2C)n(C)c1=O (stereo not drawn)
inactive: [5] 106 % of control | [6] 100 % of control

Nc1ccc(S(=O)(=O)O)c2ccccc12
inactive: [4] 94 % of control | [5] 94 % of control | [6] 103 % of control | [7] 94 % of control

O=C(O)CN1C(=O)C2C3CCC(O3)C2C1=O (stereo not drawn)
inactive: [10] 107 % of control | [12] 98 % of control | [22] 98 % of control

COc1ccc2cc(C)ncc2c1
inactive: [5] 96 % of control | [6] 91 % of control | [7] 91 % of control

CN(C)c1ccc(/C=N/NC(=O)c2ccccc2NC(=O)c2ccccc2)cc1
inactive: [18] 89 % of control | [19] 100 % of control | [21] 89 % of control

Nc1[nH]c(=O)ncc1-c1ccc(Cl)cc1
inactive: [17] 96 % of control | [18] 100 % of control

N#CCC(c1ccccc1)C(C#N)c1ccccc1 (stereo not drawn)
inactive: dose: 75.0 mg/kg/injection, schedule: Q01DX001 (ip), vehicle: carboxymethylcellulose (CMC) 97 % of control | dose: 150.0 mg/kg/injection, schedule: Q01DX001 (ip), vehicle: carboxymethylcellulose (CMC) 93 % of control

CN(C)C(=S)S/C=C\C(=O)O
inactive: dose: 25.0 mg/kg/injection, schedule: Q04DX002 (ip), vehicle: Klucel (hydroxypropylcellulose) (HPC) 90 % of control | dose: 50.0 mg/kg/injection, schedule: Q04DX002 (ip), vehicle: Klucel (hydroxypropylcellulose) (HPC) 90 % of control | [18] 112 % of control | dose: 100.0 mg/kg/injection, schedule: Q04DX002 (ip), vehicle: Klucel (hydroxypropylcellulose) (HPC) 94 % of control | [19] 89 % of control | dose: 200.0 mg/kg/injection, schedule: Q04DX002 (ip), vehicle: Klucel (hydroxypropylcellulose) (HPC) 93 % of control and 97 % of control | [21] 99 % of control | dose: 400.0 mg/kg/injection, schedule: Q04DX002 (ip), vehicle: Klucel (hydroxypropylcellulose) (HPC) 109 % of control

O=C(COc1ccc(Cl)cc1Cl)Nc1ccc2ccccc2c1
inactive: [9] 95 % of control and 96 % of control | [11] 103 % of control | [13] 107 % of control and 92 % of control

CC(Oc1cc(Cl)ccc1Cl)C(=O)O (stereo not drawn)
inactive: [2] 114 % of control | [18] 110 % of control | [3] 105 % of control | [19] 114 % of control | [20] 104 % of control | [21] 108 % of control

O=C(NO)N/N=C/C=N/NC(=O)NO
inactive: dose: 75.0 mg/kg/injection, schedule: Q01DX001 (ip), vehicle: saline 100 % of control | dose: 150.0 mg/kg/injection, schedule: Q01DX001 (ip), vehicle: saline 100 % of control | dose: 300.0 mg/kg/injection, schedule: Q01DX001 (ip), vehicle: saline 107 % of control

CN(C)C(=O)Nc1nc2cc(Cl)c(Cl)cc2[nH]1
inactive: [14] 98 % of control | [15] 100 % of control | [16] 94 % of control
